How the values were obtained:
mTOR = molecular target: T1, mTOR (Homo sapiens, UniProt P42345); experiment: Intracellular S6 phosphorylation in engineered T cells produced with mTOR kinase inhibitor; format: cell-based; conditions: 1 μM Compound 63 during process; CD8+ memory subsets
T1 construct: endogenous in cells; host or cells: primary human CD4+ and CD8+ T cells transduced with an anti-CD19 CAR
Experimental: (§1) CD4+ and CD8+ T cells were isolated by immunoaffinity-based enrichment from leukapheresis samples from human donor subjects. At day 1, isolated CD4+ and CD8+ T cells were mixed 1:1 and stimulated with an anti-CD3/anti-CD28 oligomeric stimulatory reagent generated as described in Example 2 in serum-free media supplemented with recombinant IL-2 (100 IU/mL), recombinant IL-7 (600 IU/mL), and recombinant IL-15 (100 IU/mL) with or without 1 μM of 2-(3-hydroxyphenyl)-9-(2-isopropylphenyl)-8-oxo-8,9-dihydro-7H-purine-6-carboxamide (Compound 63). The T cells cultured with our without Compound 63 were incubated overnight (approximately 24 hr) at 37° C., and were then transduced in serum-free culture media with our without Compound 63 ([…]) with a lentiviral vector encoding an anti-CD19 CAR. […]
(§2) The cryofrozen engineered CD4+ and CD8+ T cells were thawed, and T cells were assessed for intracellular S6 phosphorylation, a ribosomal protein and marker of mTOR inhibition, and co-stained for surface expression of CD4 or CD8 and for CCR7 and CD45RA as markers of memory subsets. pS6 expression in live CD8+ T cells by memory subsets was shown by the expression of CCR7 and CD45RA as shown in FIG. 30A.

CD4+ and CD8+ T cells [1] = experiment: Percent viable and total live cells of T cell composition produced with Compound 63; format: cell-based, human; conditions: 1 μM Compound 63 during process
Experimental: as §1, §2

CAR-T cells = experiment: Apoptosis marker (intracellular caspase) in thawed CAR-T cells; format: cell-based, human; conditions: vs cells not incubated with compound 63
Experimental: (§3) Thawed cells generated by the process described were assessed for a marker of apoptosis (e.g., percentage of caspase positive CAR-T cells), phenotypic profile, and ability to produce intracellular cytokines following stimulation with PMA/Ionomycin and a Golgi Inhibitor. […] Thawed cells also were stained for surface expression of CD27 and CCR7 by flow cytometry.

CD27 and CCR7 = experiment: Surface CD27 and CCR7 phenotype of T cells produced with Compound 63; format: cell-based, human; conditions: CD8+ and CD4+ T cells
Experimental: as §3

CD4+ and CD8+ T cells [2] = experiment: Intracellular cytokines after PMA/Ionomycin and Golgi inhibitor; format: cell-based, human
Experimental: as §3

[3] = system: anti-idiotype (ID) antibody against the anti-CD19 CAR; experiment: Long-term 12 day stimulation with anti-idiotype antibody beads; format: cell-based, human; conditions: 12 days anti-ID beads
Source text: To further assess the functional activity of the cells, the generated T cell compositions were stimulated long-term over 12 days with beads conjugated with an anti-idiotype (ID) antibody against the anti-CD19 CAR, and expansion and survival of the cells were monitored (FIG. 31F, left panel) and total expansion metric calculated by area under the curve (FIG. 31F, right panel).

CC(C)c1ccccc1-n1c(=O)[nH]c2c(C(N)=O)nc(-c3cccc(O)c3)nc21 [Compound 63, 2-(3-hydroxyphenyl)-9-(2-isopropylphenyl)-8-oxo-8,9-dihydro-7H-purine-6-carboxamide]
pS6 mean fluorescence intensity (marker of mTOR inhibition) (mTOR): decreased the mean fluorescence intensity of stimulated memory T cell subsets | percent viable cells or total live cells (CD4+ and CD8+ T cells [1]): did not impact the percent viable cells or the total live cells | intracellular caspase expression (CAR-T cells): less intracellular caspase expression | phenotypic subset profile by CD27 and/or CCR7 (CD27 and CCR7): did not substantially alter the phenotypic subset profile of the cells | level of intracellular cytokines IL2, IFNg, or TNF (CD4+ and CD8+ T cells [2]): substantially improved | expansion and survival after long-term CAR-specific stimulation [3]: improved function of the T cells was observed following long-term CAR-specific stimulation

Source: patent US12516099B2, “Processes for generating engineered cells and compositions thereof” (Juno Therapeutics, Inc., priority 2018, dated 2026)
